logD and logP data for 43 molecules are collected here from the SangsterLogP compilation.

A short description of data set [1]: method code SF-RC, from DOI: 10.1016/j.bmc.2005.04.014, PMID: 15911305. The settings on record: pH 7.4.
A short description of data set [2]: method code SF-AS, from DOI: 10.1016/s0021-9673(00)91570-x. Conditions: pH 3.4.
Data set [3] in a line: method code SF-RC, from DOI: 10.1021/jm070025+, PMID: 17411026. Conditions: pH 7.4.
The nature of data set [4]: method code SF-AS, from DOI: 10.1016/s0928-0987(01)00170-1, PMID: 11500262. Conditions: pH 12.5.
The nature of data set [5]: method code SF, from DOI: 10.1016/s0006-3495(89)82875-9, PMID: 2470429. Conditions: pH 7.3.
Experiment in data set [6]: not given
This is another data set of the same source.

The nature of data set [7]: method code SF-HPLC, from DOI: 10.1016/s0021-9673(99)01336-9, PMID: 10757301.
Data set [8] can be described thus: method code SF-AS, from Zsuzsa, H.; Nora, K. (1979). Study on the partition coefficient of acetanilides. Nehezvegyp. Kut. Intez. Kozl., 8, 139-146.
Data set [9] can be described thus: method code SF-AS, from DOI: 10.1007/bf00500291, PMID: 4270072. The settings on record: pH 7.4.
The conditions of data set [10]: pH 7.4.
The nature of data set [11]: method code SF-LC/MS, from DOI: 10.1021/jm4008714, PMID: 23919803. Conditions: pH 7.4.
A short description of data set [12]: method code SF-AS/IM, from DOI: 10.1002/jps.2600661205, PMID: 925928.
Data set [13] is described as follows: method code SF-GLC, from DOI: 10.1556/jpc.23.2010.3.6.
Data set [14] in a line: method code SF-AS, from PMID: 3449083.
Experiment in data set [15]: not given
This is another data set of the same source.

Experiment in data set [16]: not given
The source holds these as a separate data set.

Data set [17] in a line: from Ammermann, E., Loecher, F., Lorenz, G., Janssen, B., Karbach, S., & Meyer, N. (1990). BAS 480 F - a new broad spectrum fungicide. In Brighton Crop Protection Conference, Pests and Diseases - 1990 …. The settings on record: pH 7.0.
A short description of data set [18]: method code SF-AS, from DOI: 10.1016/0378-5173(92)90099-n.
Experiment in data set [19]: not given
This is another data set of the same source.

Experiment in data set [20]: not given
The source holds these as a separate data set.

A short description of data set [21]: method code SF-RC, from DOI: 10.1016/j.nucmedbio.2012.01.004, PMID: 22336372. The settings on record: pH 7.4.
Experiment in data set [22]: not given
This is another data set of the same source.

Experiment in data set [23]: not given
This is another data set of the same source.

Data set [24] in a line: method code SF-FL, from DOI: 10.1002/jps.2600810104, PMID: 1352350.
Data set [25] is described as follows: method code SF-HPLC, from DOI: 10.1023/a:1007514121527, PMID: 10714601. The settings on record: pH 7.4.
Data set [26] can be described thus: method code SF-AS, from DOI: 10.1081/jlc-100100410. The settings on record: pH 4.0.
The nature of data set [27]: method code SF-HPLC, from DOI: 10.1023/a:1013643013244, PMID: 11837695. Conditions: pH 6.4.
Data set [28] in a line: method code SF-RC, from PMID: 14530489. Conditions: pH 7.4.
Data set [29] in a line: method code SF, from DOI: 10.1021/jm049495j.s001, PMID: 15771458. The settings on record: pH 12.0.
A short description of data set [30]: method code SF-AS, from Galdino, S.; Pitta, I.; Luc-Duc, C. (1986). 5-Benzylidene pyrrolones, furanones and thiopenones. II. Quantitative structure-antifungal correlation. Farmaco [Sci], 41(1)59-68.
Data set [31] in a line: method code SF-AS, from PMID: 17401091. Conditions: pH 7.4.
Data set [32] can be described thus: method code SF-AS, from DOI: 10.1021/jm00254a028, PMID: 4845386.
Experiment in data set [33]: not given
This is another data set of the same source.

Experiment in data set [34]: not given
The source holds these as a separate data set.

Data set [35] in a line: method code SF, from DOI: 10.1016/j.ejps.2016.06.024, PMID: 27373604. Conditions: pH 7.4.
The nature of data set [36]: method code SF-AS, from DOI: 10.1007/bf02273190.
The nature of data set [37]: method code SF-HPLC, from Hairsine, P. (1997). Direct measurement of partition coefficient by shake flask technique and gradient elution HPLC. Lab. Practice, 38(11)73-75.
Experiment in data set [38]: not given
The source holds these as a separate data set.

Data set [39] can be described thus: method code SF-AS, from Thiel, W. (1998). Structure and physicochemical properties of retigabine. Pharmazie, 53(12)865-868. The settings on record: pH 7.4.
Experiment in data set [40]: not given
This is another data set of the same source.

Experiment in data set [41]: not given
This is another data set of the same source.

Data set [42] in a line: method code SF-RC, from DOI: 10.1016/s0969-8051(99)00046-3, PMID: 10628564. The settings on record: pH 7.4.

As for `Nc1nc(OCc2cccc(I)c2)c2ncn(C3CC(O)C(CO)O3)c2n1` (stereo not drawn), the log distribution coefficient (logD) in data set [1] is 1.4. For the molecule `COc1cc(CC(=O)O)ccc1OCC1CCCCC1`, the logD in data set [2] was found to be 3.35. `CN(C)c1ccc(/C=C/c2cnc(OCCO)c(I)c2)cc1` returned a logD in [3] of 2.64. Turning to `CN(C)CCC(c1ccccc1)c1ccccc1`, the pH-dependent lipophilicity (logD) in data set [4] came to 5.4. As to `COC(=O)C1=C(C)NC(C)=C([N+](=O)[O-])C1c1ccccc1C(F)(F)F` (stereo not drawn), the logD in data set [5] was determined as 2.46.

`CN1CC[C@]23c4c5ccc(O)c4O[C@H]2C(=O)CC[C@@]3(O)[C@H]1C5` gave a logP of 0.67. In data set [6], `COc1ccc(Sc2ccc(I)cc2N)c(CN(C)C)c1` came in with a logP of 3.34. In data set [7], `CO/N=C(\C(=O)N[C@@H]1C(=O)N2C(C(=O)O)=C(COC(N)=O)CS[C@H]12)c1ccco1` registered a logP of -0.17. `CC(Cl)C(=O)N(CC(=O)Nc1ccccc1)c1ccccc1` (stereo not drawn): the lipophilicity (logP) in data set [8] was 3.02. Molecule `CN1C(=O)CN=C(C2=CCCCC2)c2cc(Cl)ccc21` gave a log distribution coefficient (logD) in data set [9] of 2.76.

In data set [10], `CCCCSCS(=O)CC(CO)NC(=O)C=Cc1c(C)[nH]c(=O)[nH]c1=O` (stereo not drawn) registered a logD of 0.14.

`Cn1c(=O)nc(-c2ccccc2)c2oc3ccccc3c21` displayed a logD in data set [11] of 2.8. For `CC1(C)S[C@@H]2[C@H](NC(=O)COc3ccccc3)C(=O)N2[C@H]1C(=O)O`, in data set [12], the logP turned out to be 1.95. As to `CCCCCCCCCCCCCCCCO`, the logP in data set [13] came to 7.

As for `CN1C=CCC(C(=O)OC2CCC(NC(=O)N(CCCl)N=O)CC2)=C1` (stereo not drawn), in data set [14], the logP amounted to 2.53. With `CC(Oc1ccccc1)C(=O)N[C@@H]1C(=O)N2[C@@H]1SC(C)(C)[C@@H]2C(=O)O` (stereo partly drawn), the lipophilicity (logP) in data set [15] turned out to be 2.19. `Cc1cc2c(s1)Nc1ccccc1N=C2N1CCN(C)CC1` yielded a lipophilicity (logP) in data set [16] of 3. As to `Fc1ccc([C@]2(Cn3cncn3)O[C@H]2c2ccccc2Cl)cc1` (stereo in doubt), the logD in data set [17] amounted to 3.44.

With `CCn1cc(C(=O)O)c(=O)c2cc(F)c(N3CCN(C)CC3)c(F)c21`, in data set [18], the logP is 0.3. In turn, `COC1=CC(=NO)CC(C)C12Oc1c(Cl)c(OC)cc(OC)c1C2=O` (stereo not drawn) had a log partition coefficient (logP) in [19] of 2.31.

`Oc1ccc(C23CC4CC(CC(C4)C2)C3)cc1` showed a logP in data set [20] of 5.46. The molecule `C#CCN(CCF)c1ccc(S(=O)c2ccc([N+](=O)[O-])cc2)cc1` (stereo not drawn) displayed a log distribution coefficient (logD) in data set [21] of 2.6. Regarding `c1ccc2c(c1)Cc1c-2ccc2ccccc12`, the logP in [22] is 5.32. Consider `CCCCCCNC(=O)CNC(=O)OCc1ccccc1`, for which the logP in data set [23] is 3.7. Molecule `CN1CCN=C(c2ccccc2)c2cc(Cl)ccc21` showed a log partition coefficient (logP) in [24] of 3.3. With `COc1cc2oc(=O)cc(CC(NC(C)=O)C(N)=O)c2cc1OC` (stereo not drawn), the logD in data set [25] is -0.13. In data set [26], `CC(C)Oc1ccc(C(=O)NS(=O)(=O)c2ccc(N)cc2)cc1` had a logD of 1.21.

Regarding `CCCN1C(=O)CCC(N2C(=O)c3ccccc3C2=O)C1=O` (stereo not drawn), in data set [27], the pH-dependent lipophilicity (logD) was determined as 2.11.

As for `CS(=O)(=O)c1ccc(-c2ccsc2-c2ccc(F)cc2)cc1`, in data set [28], the pH-dependent lipophilicity (logD) amounted to 3.72.

Take `c1ccc2c(c1)CCn1ccnc1C21CCNCC1`: in [29], the logD came to 1.18. For the molecule `CCOC(=O)C1=C(C)O/C(=C\c2ccc(OC)cc2)C1=O`, the logP in data set [30] was found to be 2.96.

On to `CN(C)c1ncc(C=Cc2nc3ccc(OCCF)cc3o2)s1`, for which the logD in [31] came to 1.75. In data set [32], `NC(=O)OC1c2ccccc2C2CCCCC2C1OC(N)=O` (stereo not drawn) registered a log partition coefficient (logP) of 2.17. In the case of `COc1ccc(C(=O)NNC(=O)c2ccc(OC)cc2)cc1`, the logP in data set [33] was 1.55. In turn, `c1cc2ccc1CCc1ccc(cc1)CC2` registered a logP in data set [34] of 4.61.

`NC(=O)C1c2ccccc2CCc2ccccc21` had a logD in data set [35] of 1.67. Molecule `CCCCCCC(=O)N(C)c1ccc(S(=O)(=O)N(C)C)cc1` registered a logP in [36] of 2.61. Regarding `O=C(CCNNC(=O)c1ccncc1)NCc1ccccc1`, in data set [37], the log partition coefficient (logP) was determined as 0.83. Take `CN(C)Cc1ccccc1Sc1ccc(I)cc1CO`: the logP in [38] was 2.67. Molecule `CCOC(=O)Nc1ccc(NCc2ccc(F)cc2)cc1N` showed a log distribution coefficient (logD) in data set [39] of 2.17.

`CCCN(CCC)P(=O)(OC(C)CC)c1ccccc1` (stereo not drawn): the lipophilicity (logP) in [40] was found to be 4.13. With `CCCCCCCC(=O)N[C@@H]1C(=O)N2[C@@H]1SC(C)(C)[C@@H]2C(=O)O`, the logP in data set [41] came to 3.32. `CN1CCN(C(=O)OC2c3nccnc3C(=O)N2c2ccc(I)cn2)CC1` (stereo not drawn) showed a logD in [42] of 1.6.
